From ChEMBL document CHEMBL5442334, “ASAP - In vitro safety pharmacology profile” (2024)

Tests used:
[1] = target: 5-hydroxytryptamine receptor 1B (Homo sapiens) (UniProt P28222); test: SafetyScreen: 5-HT1B Human Serotonin GPCR Binding Antagonist Radioligand LeadHunter Assay, catalogue number: 4376; details: Test compound concentration 10.0 uM
[2] = species on record: Rattus norvegicus; test: SafetyScreen: KV (Non-Selective) Rat Potassium Ion Channel [125I] alpha-Dendrotoxin Binding LeadHunter Assay, catalogue number: 166; details: Test compound concentration 10.0 uM
[3] = target: 3',5'-cyclic-AMP phosphodiesterase 4D (Homo sapiens) (UniProt Q08499); test: SafetyScreen: PDE4D2 Human Phosphodiesterase Enzymatic LeadHunter Assay, catalogue number: 4077; format: functional; details: Test compound concentration 10.0 uM
[4] = target: 5-hydroxytryptamine receptor 2B (Homo sapiens) (UniProt P41595); test: SafetyScreen: 5-HT2B Human Serotonin GPCR [125I](±)DOI Binding Agonist Radioligand LeadHunter Assay, catalogue number: 1333; details: Test compound concentration 10.0 uM
[5] = target: T1, Prostaglandin G/H synthase 2 (Homo sapiens) (UniProt P35354); test: SafetyScreen: COX2 Human Cyclooxygenase Enzymatic LeadHunter Assay, catalogue number: 4186; format: functional; details: Test compound concentration 10.0 uM
T1 sequence (whole entry): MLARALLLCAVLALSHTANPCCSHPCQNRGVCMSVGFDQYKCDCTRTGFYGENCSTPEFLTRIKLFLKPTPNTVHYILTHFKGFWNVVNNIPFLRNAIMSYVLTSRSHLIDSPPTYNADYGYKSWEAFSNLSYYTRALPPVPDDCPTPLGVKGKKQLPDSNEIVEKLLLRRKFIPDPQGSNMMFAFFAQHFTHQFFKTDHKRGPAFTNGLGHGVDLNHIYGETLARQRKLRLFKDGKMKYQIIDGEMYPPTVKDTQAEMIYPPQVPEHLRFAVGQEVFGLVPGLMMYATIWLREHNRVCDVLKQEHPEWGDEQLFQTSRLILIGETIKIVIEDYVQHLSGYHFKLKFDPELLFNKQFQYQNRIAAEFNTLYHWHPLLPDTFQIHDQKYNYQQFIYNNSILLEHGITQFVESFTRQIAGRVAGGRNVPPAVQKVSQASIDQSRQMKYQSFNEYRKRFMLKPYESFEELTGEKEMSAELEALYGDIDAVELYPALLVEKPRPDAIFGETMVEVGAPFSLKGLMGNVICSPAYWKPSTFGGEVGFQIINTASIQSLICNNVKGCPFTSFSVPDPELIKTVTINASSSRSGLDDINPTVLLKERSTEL

[6] = target: Voltage-gated inwardly rectifying potassium channel KCNH2 (Homo sapiens, UniProt Q12809); test: SafetyScreen: hERG Human Potassium Ion Channel [3H] Dofetilide Binding Antagonist Radioligand SafetyScreen, catalogue number: 4094; details: at 10 µM, test compound concentration 10 uM
[7] = target: Voltage-gated L-type calcium channel (Rattus norvegicus, UniProt P22002+Q02485+P27732); test: SafetyScreen: Cav1.2 (L-type) Rat Calcium Ion Channel Binding (Dihydropyridine Site) LeadHunter Assay, catalogue number: 161; format: protein assay; details: at 10 µM, test compound concentration 10 uM
[8] = target: T2, Alpha-2A adrenergic receptor (Homo sapiens) (UniProt P08913); test: SafetyScreen: alpha2A Human Adrenoceptor GPCR Binding Antagonist Radioligand LeadHunter Assay, catalogue number: 13; details: Test compound concentration 10.0 uM
T2 sequence (whole entry): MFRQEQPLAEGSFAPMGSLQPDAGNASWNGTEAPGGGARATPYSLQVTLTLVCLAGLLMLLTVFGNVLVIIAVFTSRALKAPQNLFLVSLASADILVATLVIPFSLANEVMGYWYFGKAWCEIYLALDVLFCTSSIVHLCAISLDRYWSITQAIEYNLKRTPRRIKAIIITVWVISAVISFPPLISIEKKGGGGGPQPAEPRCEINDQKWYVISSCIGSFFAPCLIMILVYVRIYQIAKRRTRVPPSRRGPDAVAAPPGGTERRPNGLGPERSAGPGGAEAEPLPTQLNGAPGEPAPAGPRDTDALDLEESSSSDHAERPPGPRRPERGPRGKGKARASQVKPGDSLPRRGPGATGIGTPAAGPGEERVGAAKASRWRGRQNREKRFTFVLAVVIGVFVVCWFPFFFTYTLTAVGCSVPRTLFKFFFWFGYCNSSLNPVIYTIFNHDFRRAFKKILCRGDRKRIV

[9] = target: T3, Cholecystokinin receptor type A (Homo sapiens) (UniProt P32238); test: SafetyScreen: CCK1 (CCKA) Human Cholecystokinin GPCR Binding Agonist Radioligand LeadHunter Assay, catalogue number: 39; details: Test compound concentration 10.0 uM
T3 sequence (whole entry): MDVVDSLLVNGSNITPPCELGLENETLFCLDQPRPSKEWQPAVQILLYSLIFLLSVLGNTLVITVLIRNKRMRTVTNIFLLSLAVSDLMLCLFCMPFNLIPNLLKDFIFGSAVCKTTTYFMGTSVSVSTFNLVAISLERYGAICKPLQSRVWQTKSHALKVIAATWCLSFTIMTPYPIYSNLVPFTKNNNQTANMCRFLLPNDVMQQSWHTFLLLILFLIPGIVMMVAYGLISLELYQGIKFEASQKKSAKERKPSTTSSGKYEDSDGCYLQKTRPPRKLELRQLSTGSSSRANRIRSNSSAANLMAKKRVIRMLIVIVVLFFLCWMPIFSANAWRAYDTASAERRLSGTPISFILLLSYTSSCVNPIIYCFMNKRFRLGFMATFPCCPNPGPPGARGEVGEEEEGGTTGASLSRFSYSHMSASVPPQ

[10] = target: T4, Amine oxidase [flavin-containing] A (Rattus norvegicus, UniProt P21396); test: SafetyScreen: Monoamine Oxidase A (MAO-A) Rat Binding Antagonist Radioligand LeadHunter Assay, catalogue number: 443; details: at 10 µM, test compound concentration 10 uM
T4 sequence (P21396 whole entry): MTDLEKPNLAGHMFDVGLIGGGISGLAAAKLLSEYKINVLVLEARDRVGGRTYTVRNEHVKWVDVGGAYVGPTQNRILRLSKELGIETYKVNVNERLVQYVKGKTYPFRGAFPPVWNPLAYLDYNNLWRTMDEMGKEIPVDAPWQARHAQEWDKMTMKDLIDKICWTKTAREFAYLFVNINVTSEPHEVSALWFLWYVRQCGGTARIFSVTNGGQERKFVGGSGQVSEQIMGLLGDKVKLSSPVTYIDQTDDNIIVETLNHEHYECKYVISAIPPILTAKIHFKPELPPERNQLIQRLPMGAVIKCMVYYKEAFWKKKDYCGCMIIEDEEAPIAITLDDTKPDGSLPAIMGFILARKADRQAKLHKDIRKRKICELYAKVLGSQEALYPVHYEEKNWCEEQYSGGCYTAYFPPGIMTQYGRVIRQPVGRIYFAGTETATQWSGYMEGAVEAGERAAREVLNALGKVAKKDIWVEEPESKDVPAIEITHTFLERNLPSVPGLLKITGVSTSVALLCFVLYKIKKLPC

[11] = target: Adenosine receptor A2a (Homo sapiens) (UniProt P29274); test: SafetyScreen: A2A Human Adenosine GPCR Binding Agonist Radioligand LeadHunter Assay, catalogue number: 4; details: Test compound concentration 10.0 uM
[12] = target: Tyrosine-protein kinase Lck (Homo sapiens) (UniProt P06239); test: SafetyScreen: Lck Human TK Kinase Enzymatic TR-FRET [Km ATP] LeadHunter Assay, catalogue number: 2906; format: functional; details: Test compound concentration 10.0 uM
[13] = target: cGMP-inhibited 3',5'-cyclic phosphodiesterase 3A (Homo sapiens) (UniProt Q14432); test: SafetyScreen: PDE3A Human Phosphodiesterase Enzymatic LeadHunter Assay, catalogue number: 4072; format: functional; details: Test compound concentration 10.0 uM
Chain of cGMP-inhibited 3',5'-cyclic phosphodiesterase 3A (Homo sapiens) (Q14432 whole entry): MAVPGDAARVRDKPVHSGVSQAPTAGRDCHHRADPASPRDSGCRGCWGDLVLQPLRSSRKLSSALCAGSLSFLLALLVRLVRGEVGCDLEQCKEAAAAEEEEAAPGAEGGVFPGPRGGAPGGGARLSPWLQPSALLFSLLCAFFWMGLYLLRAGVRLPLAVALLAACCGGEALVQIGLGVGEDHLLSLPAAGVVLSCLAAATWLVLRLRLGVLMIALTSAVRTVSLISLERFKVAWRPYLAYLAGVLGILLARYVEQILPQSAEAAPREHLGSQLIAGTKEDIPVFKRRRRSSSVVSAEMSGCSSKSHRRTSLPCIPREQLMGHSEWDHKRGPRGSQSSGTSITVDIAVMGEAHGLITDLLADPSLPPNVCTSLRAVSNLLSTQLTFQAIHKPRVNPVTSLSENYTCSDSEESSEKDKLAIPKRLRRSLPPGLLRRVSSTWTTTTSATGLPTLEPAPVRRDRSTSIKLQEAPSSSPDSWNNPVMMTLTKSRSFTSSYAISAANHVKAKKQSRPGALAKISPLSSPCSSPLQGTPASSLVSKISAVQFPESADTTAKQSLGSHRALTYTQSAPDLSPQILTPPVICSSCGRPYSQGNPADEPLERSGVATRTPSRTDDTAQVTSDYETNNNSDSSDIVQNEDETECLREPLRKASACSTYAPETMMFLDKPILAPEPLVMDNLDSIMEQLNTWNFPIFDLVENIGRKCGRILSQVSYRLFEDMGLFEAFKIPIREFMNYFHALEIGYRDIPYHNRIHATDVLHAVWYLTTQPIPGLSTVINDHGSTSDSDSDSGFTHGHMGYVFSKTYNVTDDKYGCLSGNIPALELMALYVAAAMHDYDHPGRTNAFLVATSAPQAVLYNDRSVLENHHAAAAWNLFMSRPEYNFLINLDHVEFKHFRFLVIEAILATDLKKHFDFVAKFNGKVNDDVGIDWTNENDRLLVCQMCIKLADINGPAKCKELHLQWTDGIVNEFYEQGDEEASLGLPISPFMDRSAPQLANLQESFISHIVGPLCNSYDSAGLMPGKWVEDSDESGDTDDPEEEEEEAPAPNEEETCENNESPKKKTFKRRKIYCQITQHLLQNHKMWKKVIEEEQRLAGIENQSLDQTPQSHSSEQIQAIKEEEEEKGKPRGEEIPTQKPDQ

Chain of 3',5'-cyclic-AMP phosphodiesterase 4D (Homo sapiens) (Q08499 whole entry): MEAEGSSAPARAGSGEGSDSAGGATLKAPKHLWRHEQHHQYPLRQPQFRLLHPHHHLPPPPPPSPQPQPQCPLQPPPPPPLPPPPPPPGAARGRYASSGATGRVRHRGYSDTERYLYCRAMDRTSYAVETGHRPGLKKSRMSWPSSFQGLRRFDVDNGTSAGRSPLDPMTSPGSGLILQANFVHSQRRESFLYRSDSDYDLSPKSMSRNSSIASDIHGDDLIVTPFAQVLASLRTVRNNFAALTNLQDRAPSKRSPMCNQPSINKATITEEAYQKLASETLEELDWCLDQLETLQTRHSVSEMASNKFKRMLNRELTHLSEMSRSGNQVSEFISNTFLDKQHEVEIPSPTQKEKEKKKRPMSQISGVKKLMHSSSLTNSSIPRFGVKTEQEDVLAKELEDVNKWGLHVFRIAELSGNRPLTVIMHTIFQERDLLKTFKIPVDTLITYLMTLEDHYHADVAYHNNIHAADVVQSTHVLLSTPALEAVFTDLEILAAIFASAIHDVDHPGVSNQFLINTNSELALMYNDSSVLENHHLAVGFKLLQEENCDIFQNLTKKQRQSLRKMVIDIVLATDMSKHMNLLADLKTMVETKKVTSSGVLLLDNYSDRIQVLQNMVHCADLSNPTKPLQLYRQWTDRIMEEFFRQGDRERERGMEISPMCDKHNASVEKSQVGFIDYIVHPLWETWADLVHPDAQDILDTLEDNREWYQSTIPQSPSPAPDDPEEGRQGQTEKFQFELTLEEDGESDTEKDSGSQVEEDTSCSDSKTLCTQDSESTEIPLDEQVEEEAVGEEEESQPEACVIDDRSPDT
Chain of 5-hydroxytryptamine receptor 1B (Homo sapiens) (P28222 whole entry): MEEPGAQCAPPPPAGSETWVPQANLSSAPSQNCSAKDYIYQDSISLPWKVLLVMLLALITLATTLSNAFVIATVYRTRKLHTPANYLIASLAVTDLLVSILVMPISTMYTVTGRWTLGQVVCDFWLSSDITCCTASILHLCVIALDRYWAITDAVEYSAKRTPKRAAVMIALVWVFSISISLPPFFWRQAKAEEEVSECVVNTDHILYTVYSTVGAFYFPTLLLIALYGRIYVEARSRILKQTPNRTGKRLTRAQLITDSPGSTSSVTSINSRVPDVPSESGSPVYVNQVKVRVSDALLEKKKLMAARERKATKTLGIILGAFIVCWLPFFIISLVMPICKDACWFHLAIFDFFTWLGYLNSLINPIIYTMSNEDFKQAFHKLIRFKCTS
Chain of Adenosine receptor A2a (Homo sapiens) (P29274 whole entry): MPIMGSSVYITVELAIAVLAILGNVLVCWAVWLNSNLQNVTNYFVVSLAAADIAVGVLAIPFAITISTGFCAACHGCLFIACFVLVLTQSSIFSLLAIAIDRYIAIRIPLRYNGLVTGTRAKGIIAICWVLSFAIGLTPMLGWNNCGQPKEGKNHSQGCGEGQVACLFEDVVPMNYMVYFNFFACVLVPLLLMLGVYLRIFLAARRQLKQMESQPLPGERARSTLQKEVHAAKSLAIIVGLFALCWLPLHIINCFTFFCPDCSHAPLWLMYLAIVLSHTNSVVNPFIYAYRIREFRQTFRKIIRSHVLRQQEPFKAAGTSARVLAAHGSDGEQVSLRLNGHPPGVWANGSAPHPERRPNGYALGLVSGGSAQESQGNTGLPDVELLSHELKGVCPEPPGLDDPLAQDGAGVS
Chain of Tyrosine-protein kinase Lck (Homo sapiens) (P06239 2-509 limits assumed): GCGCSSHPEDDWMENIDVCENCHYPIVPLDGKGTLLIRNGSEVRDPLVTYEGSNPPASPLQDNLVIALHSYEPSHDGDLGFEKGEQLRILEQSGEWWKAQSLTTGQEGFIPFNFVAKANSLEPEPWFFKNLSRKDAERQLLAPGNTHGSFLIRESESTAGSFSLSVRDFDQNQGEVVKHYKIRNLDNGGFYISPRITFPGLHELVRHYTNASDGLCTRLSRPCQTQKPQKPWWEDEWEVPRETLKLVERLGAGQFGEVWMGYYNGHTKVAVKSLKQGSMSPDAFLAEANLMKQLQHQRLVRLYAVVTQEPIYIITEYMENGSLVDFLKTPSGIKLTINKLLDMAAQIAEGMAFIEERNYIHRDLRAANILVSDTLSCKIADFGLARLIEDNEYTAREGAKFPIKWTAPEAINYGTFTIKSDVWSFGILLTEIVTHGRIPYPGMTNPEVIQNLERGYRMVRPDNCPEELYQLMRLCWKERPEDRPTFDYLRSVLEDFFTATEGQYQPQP
Chain of 5-hydroxytryptamine receptor 2B (Homo sapiens) (P41595 whole entry): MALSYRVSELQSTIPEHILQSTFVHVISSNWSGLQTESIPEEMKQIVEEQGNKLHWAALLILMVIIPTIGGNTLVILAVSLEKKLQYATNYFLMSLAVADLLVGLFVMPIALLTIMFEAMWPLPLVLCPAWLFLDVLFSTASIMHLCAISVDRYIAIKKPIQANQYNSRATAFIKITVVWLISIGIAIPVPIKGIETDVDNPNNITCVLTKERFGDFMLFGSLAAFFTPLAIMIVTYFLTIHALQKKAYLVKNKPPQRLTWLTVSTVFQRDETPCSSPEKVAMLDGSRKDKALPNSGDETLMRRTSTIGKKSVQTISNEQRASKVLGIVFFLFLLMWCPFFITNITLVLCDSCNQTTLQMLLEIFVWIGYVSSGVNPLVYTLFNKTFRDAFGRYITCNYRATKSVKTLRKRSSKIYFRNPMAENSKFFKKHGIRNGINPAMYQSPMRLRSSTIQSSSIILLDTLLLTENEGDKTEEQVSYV
Chain of Voltage-gated inwardly rectifying potassium channel KCNH2 (Q12809 whole entry): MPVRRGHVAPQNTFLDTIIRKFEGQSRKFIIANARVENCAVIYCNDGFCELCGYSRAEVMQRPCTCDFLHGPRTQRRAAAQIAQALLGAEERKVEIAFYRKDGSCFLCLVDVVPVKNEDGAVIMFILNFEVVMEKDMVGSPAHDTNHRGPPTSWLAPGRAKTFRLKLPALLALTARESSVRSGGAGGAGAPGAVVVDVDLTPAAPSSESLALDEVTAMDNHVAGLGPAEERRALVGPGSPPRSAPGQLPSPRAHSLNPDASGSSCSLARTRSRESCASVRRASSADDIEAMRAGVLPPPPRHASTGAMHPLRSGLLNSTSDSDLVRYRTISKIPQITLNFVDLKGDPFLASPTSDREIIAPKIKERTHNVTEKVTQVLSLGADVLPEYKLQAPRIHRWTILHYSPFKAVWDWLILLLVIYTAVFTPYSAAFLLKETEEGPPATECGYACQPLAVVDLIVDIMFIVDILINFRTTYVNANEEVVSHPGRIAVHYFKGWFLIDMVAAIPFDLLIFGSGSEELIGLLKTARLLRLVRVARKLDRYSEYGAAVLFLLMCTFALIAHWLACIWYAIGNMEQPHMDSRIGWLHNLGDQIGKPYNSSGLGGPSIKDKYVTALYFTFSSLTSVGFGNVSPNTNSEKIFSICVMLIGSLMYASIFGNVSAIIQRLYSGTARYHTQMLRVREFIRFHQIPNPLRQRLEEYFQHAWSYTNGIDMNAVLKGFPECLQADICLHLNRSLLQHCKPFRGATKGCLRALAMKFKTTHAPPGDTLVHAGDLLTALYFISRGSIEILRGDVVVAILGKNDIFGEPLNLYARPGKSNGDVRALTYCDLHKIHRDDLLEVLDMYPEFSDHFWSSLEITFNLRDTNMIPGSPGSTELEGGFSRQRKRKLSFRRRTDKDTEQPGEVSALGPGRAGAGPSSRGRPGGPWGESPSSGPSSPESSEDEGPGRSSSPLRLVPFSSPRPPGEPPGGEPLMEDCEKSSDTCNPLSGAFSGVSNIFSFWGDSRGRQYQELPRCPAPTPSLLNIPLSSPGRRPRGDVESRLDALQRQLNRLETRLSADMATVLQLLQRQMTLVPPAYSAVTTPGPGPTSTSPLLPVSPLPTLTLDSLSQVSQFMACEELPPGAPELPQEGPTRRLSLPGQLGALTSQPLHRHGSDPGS

SMILES | inhibition [1] | inhibition [2] | inhibition [3] | inhibition [4] | inhibition [5] | Inhibition [6] | Inhibition [7] | inhibition [8] | inhibition [9] | Inhibition [10] | inhibition [11] | inhibition [12] | inhibition [13]
CC(C)[C@@H](Nc1ncnc2[nH]c(C(=O)N[C@@H]3CCN(C)C3)cc12)c1ccc2c(c1)S(=O)(=O)CCC2 | 17% | 2% | 37% | 6% | 4% | 7% | -6% | 6% | 7% | 3% | -4% | 15% | 4%
Cc1nn(C)cc1-c1cc2c(N[C@H](c3ccc4c(c3)S(=O)(=O)CCC4)C(C)C)ncnc2[nH]1 | 15% | 1% | 43% | 43% | 23% | 3% | 12% | 5% | -8% | 5% | 13% | 33% | 46%
CC(C)[C@@H](Nc1ncnc2[nH]c(-c3cnn(C)c3C#N)cc12)c1ccc2c(n1)OCCO2 | 4% | 2% | 44% | 40% | -7% | 32% | 10% | 9% | 20% | 8% | 69% | 34% | 37%
Cn1ncc(-c2cc3c(N[C@@H](c4ccc5c(n4)OCCO5)C(C)(C)C)ncnc3[nH]2)c1C#N | 18% | 5% | 20% | -5% | -9% | 36% | 21% | 11% | 4% | 10% | 52% | 47% | 37%
CNCc1cc(-c2cc3c(N[C@@H](c4ccc5c(c4)S(=O)(=O)CCC5)C(C)C)ncnc3[nH]2)co1 | 45% | 1% | 43% | – | 24% | – | -3% | 15% | – | 11% | 21% | 68% | -5%
COc1ccc([C@H](Cc2nnn[nH]2)NC(=O)c2ncnc3[nH]ccc23)cc1 | – | -1% | 41% | – | -1% | 5% | -22% | -1% | -5% | 0% | – | 4% | 62%
C[C@H](C(=O)O)[C@@H](NC(=O)c1ncnc2[nH]ccc12)c1ccc(Br)cc1 | 1% | 0% | 30% | -4% | 7% | 14% | -12% | 3% | 6% | -1% | – | 4% | 52%
CNC(=O)Cn1cc(-c2cc3c(N[C@@H](c4ccc5c(c4)S(=O)(=O)CCC5)C(C)C)ncnc3[nH]2)cn1 | 0% | -2% | 41% | 25% | 27% | 4% | -1% | 4% | -4% | 8% | 23% | 30% | -9%
CC(C)[C@H](Nc1ncnc2[nH]ccc12)c1ccc2c(c1)S(=O)(=O)CCC2 | 0% | -10% | 36% | 54% | 23% | 20% | 12% | 10% | -2% | 7% | 11% | 10% | 29%
CC(C)[C@H](Nc1ncnc2[nH]c(-c3cnn(C)c3C#N)cc12)c1ccc2c(n1)OCCO2 | – | 0% | 70% | 18% | -2% | 29% | 9% | 7% | 1% | 4% | 84% | 20% | 37%
